A word on the IC50: it is the concentration that inhibits the measured activity by half. Read a low IC50 as greater potency.

This assay has as its target T1, SARS2 protease (Severe acute respiratory syndrome coronavirus 2, UniProt P0DTD1).
T1 construct: SARS2 protease was added to a final concentration of 30 nM
In words: SARS-CoV-2 protease inhibition assay (SARS2 FRET protease assay). It counts as biochemical. To be noted: IC50 (μM), SARS2 protease 30 nM, peptide substrate 1.3 μM, 120 minutes at 37° C., compounds 20 μM to 0.075 nM.
The compound `O=C(N[C@@H](CC1CCCCC1)C(=O)N[C@@H](C[C@@H]1CCNC1=O)C(O)S(=O)(=O)O)OC(c1ccccc1)C(F)(F)c1cccc(Cl)c1` (some centres unmarked) [Compound A75] registered an IC50 of 9 nM.

Regarding `CCCC[C@H](NC(=O)OC(c1ccc(F)cc1)C1(c2cccc(Cl)c2)CC1)C(=O)N[C@@H](C[C@@H]1CCNC1=O)C(=O)C(=O)NC1CC1` (some centres unmarked) [Compound A76], half-maximal inhibition (IC50) was put at 53 nM.

`CCCC[C@H](NC(=O)OC(c1ccccc1)C(F)(F)c1cccc(F)c1)C(=O)N[C@H](C=O)C[C@@H]1CCNC1=O` (stereo partly drawn) [Compound A77, 2,2-difluoro-2-(3-fluorophenyl)-1-phenylethyl ((S)-1-oxo-1-(((S)-1-oxo-3-((S)-2-oxopyrrolidin-3-yl)propan-2-yl)amino)hexan-2-yl)carbamate] showed an IC50 of 9 nM.

Regarding `CCCC[C@H](NC(=O)OC(c1cccc(F)c1)C(F)(F)c1cccc(F)c1)C(=O)N[C@H](C=O)C[C@@H]1CCNC1=O` (some centres unmarked) [Compound A78], the IC50 stood at 9 nM.

Take `CC(C)C[C@H](NC(=O)O[C@H](c1ccccc1)C(F)(F)c1cccc(Cl)c1)C(=O)N[C@H](C=O)C[C@@H]1CCNC1=O` [Compound A79]: the IC50 is 13 nM.

In turn, `CCCC[C@H](NC(=O)OC(c1cccc(F)c1)C(F)(F)c1cccc(F)c1)C(=O)N[C@@H](C[C@@H]1CCNC1=O)C(=O)C(=O)NC1CC1` (some centres unmarked) [Compound A80] showed an IC50 of 140 nM.

The compound `CCCC[C@H](NC(=O)OC(c1ccccc1)C(F)(F)c1cccc(Cl)c1)C(=O)N[C@H](C=O)CC1CC(C)(C)NC1=O` (some centres unmarked) [Compound A81] came in with an IC50 of 470 nM.

`CC(C)C[C@H](NC(=O)OC(c1cccc(Cl)c1)C1(c2cccc(Cl)c2)CCNCC1)C(=O)N[C@@H](C[C@@H]1CCNC1=O)C(=O)C(=O)NC1CC1` (some centres unmarked) [Compound A83] yielded an IC50 of 510 nM.

Compound `CC(C)C[C@H](NC(=O)OC(c1ccc(Cl)cc1)C1(c2cccc(Cl)c2)CCN(C(=O)OC(C)(C)C)CC1)C(=O)N[C@H](C=O)C[C@@H]1CCNC1=O` (some centres unmarked) [Compound A85] registered a half-maximal inhibitory concentration (IC50) of 460 nM.

Take `CC(C)C[C@H](NC(=O)OC(c1cccc(Cl)c1)C1(c2cccc(Cl)c2)CCN(C(=O)OC(C)(C)C)CC1)C(=O)N[C@H](C=O)C[C@@H]1CCNC1=O` (some centres unmarked) [Compound A86]: the 50% inhibitory concentration (IC50) worked out at 370 nM.

As for `CCCC[C@H](NC(=O)OC(c1ccccc1)C(F)(F)c1cccc(F)c1)C(=O)N[C@@H](C[C@@H]1CCNC1=O)C(=O)C(=O)NC1CC1` (some centres unmarked) [Compound A87], it took 90 nM to reach half-maximal inhibition (IC50).

On to `CC(C)C[C@H](NC(=O)OC(c1ccc(Cl)cc1)C1(c2cccc(Cl)c2)CCN(C(=O)OC(C)(C)C)CC1)C(=O)N[C@@H](C[C@@H]1CCNC1=O)C(=O)C(=O)NC1CC1` (some centres unmarked) [Compound A88], for which half-maximal inhibition (IC50) was put at 630 nM.

The compound `CCC[C@H](NC(=O)OC(c1ccccc1)C(F)(F)c1cccc(F)c1)C(=O)N[C@H](C=O)C[C@@H]1CCNC1=O` (some centres unmarked) [Compound A89] had an IC50 of 20 nM.

Consider `CCCC[C@H](NC(=O)OC(c1ccccc1)C1(c2cccc(Cl)c2)CC1)C(=O)N[C@H](C=O)C[C@@H]1CCNC1=O` (some centres unmarked) [Compound A90], for which half-maximal inhibition (IC50) was put at 40 nM.

`CCCC[C@H](NC(=O)OC(c1ccc(F)cc1)C1(c2cccc(Cl)c2)CC1)C(=O)N[C@H](C=O)C[C@@H]1CCNC1=O` (some centres unmarked) [Compound A91] returned an IC50 of 10 nM.

Regarding `CC(C)C[C@H](NC(=O)OC(c1ccc(Cl)cc1)C1(c2cccc(Cl)c2)CCNCC1)C(=O)N[C@@H](C[C@@H]1CCNC1=O)C(=O)C(=O)NC1CC1` (some centres unmarked) [Compound A92], it took 1120 nM to reach half-maximal inhibition (IC50).

With `O=C[C@H](C[C@@H]1CCNC1=O)NC(=O)[C@H](CC1CCCC1)NC(=O)OC(c1ccccc1)C(F)(F)c1cccc(Cl)c1` (stereo partly drawn) [Compound A93, 2-(3-chlorophenyl)-2,2-difluoro-1-phenylethyl ((S)-3-cyclopentyl-1-oxo-1-(((S)-1-oxo-3-((S)-2-oxopyrrolidin-3-yl)propan-2-yl)amino)propan-2-yl)carbamate], 0.3 nM corresponded to half-maximal inhibition (IC50).

In the case of `O=C(N[C@@H](CC1CC1)C(=O)N[C@@H](C[C@@H]1CCNC1=O)C(=O)C(=O)NC1CC1)OC(c1ccccc1)C(F)(F)c1cccc(Cl)c1` (some centres unmarked) [Compound A94], the IC50 is 12.3 nM.

Consider `O=C[C@H](C[C@@H]1CCNC1=O)NC(=O)[C@H](CC1CC1)NC(=O)OC(c1ccccc1)C(F)(F)c1cccc(Cl)c1` (some centres unmarked) [Compound A95], for which the IC50 amounted to 0.9 nM.

Compound `CCCC[C@H](NC(=O)OC(c1cccc(F)c1)C1(c2cccc(Cl)c2)CC1)C(=O)N[C@H](C=O)C[C@@H]1CCNC1=O` (some centres unmarked) [Compound A96] came in with an IC50 of 7 nM.

For `CCCC[C@H](NC(=O)OC(c1cccc(F)c1)C1(c2cccc(F)c2)CC1)C(=O)N[C@H](C=O)C[C@@H]1CCNC1=O` (some centres unmarked) [Compound A97], the IC50 is 2.1 nM.

With `CCC[C@H](NC(=O)OC(c1ccccc1)C(F)(F)c1cccc(Cl)c1)C(=O)N[C@H](C=O)C[C@@H]1CCNC1=O` (some centres unmarked) [Compound A98], half-maximal inhibition (IC50) required 1.9 nM.

`CCCC[C@H](NC(=O)OC(c1cccc(F)c1)C(F)(F)c1cccc(Cl)c1)C(=O)N[C@H](C=O)C[C@@H]1CCNC1=O` (some centres unmarked) [Compound A99] came in with a half-maximal inhibitory concentration (IC50) of 0.6 nM.

`CCC[C@H](NC(=O)OC(c1ccccc1)C(F)(F)c1cccc(F)c1)C(=O)N[C@@H](C[C@@H]1CCNC1=O)C(=O)C(=O)NC1CC1` (some centres unmarked) [Compound A100] returned an IC50 of 250 nM.

Compound `CCC(=O)OC([C@H](C[C@@H]1CCNC1=O)NC(=O)[C@H](CC1CCCCC1)NC(=O)OC(c1ccccc1)C(F)(F)c1cccc(Cl)c1)S(=O)(=O)O` (some centres unmarked) [Compound A101] yielded an IC50 of 178 nM.

`O=C[C@H](C[C@@H]1CCNC1=O)NC(=O)[C@H](CC1CCC1)NC(=O)OC(c1ccccc1)C(F)(F)c1cccc(Cl)c1` (some centres unmarked) [Compound A102]: half-maximal inhibition (IC50) required 0.1 nM.

The compound `O=C(N[C@@H](CC1CCCC1)C(=O)N[C@@H](C[C@@H]1CCNC1=O)C(=O)C(=O)NC1CC1)OC(c1ccccc1)C(F)(F)c1cccc(Cl)c1` (some centres unmarked) [Compound A103] yielded an IC50 of 156 nM.

For `CCCC[C@H](NC(=O)OC(c1cccc(F)c1)C1(c2cccc(F)c2)CC1)C(=O)N[C@@H](C[C@@H]1CCNC1=O)C(=O)C(=O)NC1CC1` (some centres unmarked) [Compound A104], the midpoint of inhibition, the IC50, lay at 309 nM.

Turning to `CCCC[C@H](NC(=O)OC(c1cccc(F)c1)C1(c2cccc(Cl)c2)CC1)C(=O)N[C@@H](C[C@@H]1CCNC1=O)C(=O)C(=O)NC1CC1` (some centres unmarked) [Compound A105], 510 nM corresponded to half-maximal inhibition (IC50).

Consider `CCCC[C@H](NC(=O)OC(c1cccc(F)c1)C(F)(F)c1cccc(Cl)c1)C(=O)N[C@@H](C[C@@H]1CCNC1=O)C(=O)C(=O)NC1CC1` (some centres unmarked) [Compound A106], for which the IC50 stood at 170 nM.

`CCCC[C@H](NC(=O)O[C@@H](c1ccccc1)C(F)(F)c1cccc(Cl)c1)C(=O)N[C@H](C=O)C[C@@H]1CCNC1=O` [Compound A107, (S)-2-(3-chlorophenyl)-2,2-difluoro-1-phenylethyl ((S)-1-oxo-1-(((S)-1-oxo-3-((S)-2-oxopyrrolidin-3-yl)propan-2-yl)amino)hexan-2-yl)carbamate] registered an IC50 of 1 nM.

On to `CCC[C@H](NC(=O)OC(c1ccccc1)C(F)(F)c1cccc(Cl)c1)C(=O)N[C@@H](C[C@@H]1CCNC1=O)C(=O)C(=O)NC1CC1` (some centres unmarked) [Compound A109], for which half-maximal inhibition (IC50) was put at 170 nM.

In turn, `CCCC[C@H](NC(=O)O[C@H](c1ccccc1)C(F)(F)c1cccc(Cl)c1)C(=O)N[C@H](C=O)C[C@@H]1CCNC1=O` [Compound A110, (R)-2-(3-chlorophenyl)-2,2-difluoro-1-phenylethyl ((S)-1-oxo-1-(((S)-1-oxo-3-((S)-2-oxopyrrolidin-3-yl)propan-2-yl)amino)hexan-2-yl)carbamate] returned a half-inhibitory concentration (IC50) of 0.2 nM.

`CCCC[C@H](NC(=O)O[C@H](c1ccccc1)C(F)(F)c1cccc(Cl)c1)C(=O)N[C@@H](C[C@@H]1CCNC1=O)C(O)S(=O)(=O)O` (some centres unmarked) [Compound A111] had an IC50 of 2.8 nM.

The compound `CCCC[C@H](NC(=O)OC(c1ccccc1)C(F)(F)c1cccc(Cl)c1)C(=O)N[C@H](C=O)CC1CC(C)NC1=O` (some centres unmarked) [Compound A112] registered a concentration for half-maximal inhibition (IC50) of 179 nM.

Turning to `CCCC(=O)OC([C@H](C[C@@H]1CCNC1=O)NC(=O)[C@H](CC1CCCCC1)NC(=O)OC(c1ccccc1)C(F)(F)c1cccc(Cl)c1)S(=O)(=O)O` (some centres unmarked) [Compound A113], the IC50 was determined as 241 nM.

`CCCC[C@H](NC(=O)OC(c1ccccc1)C(F)(F)c1cccc(Cl)c1)C(=O)N[C@H](C=O)C[C@@H]1CCCNC1=O` (some centres unmarked) [Compound A114] displayed an IC50 of 0.3 nM.

As for `CCCC[C@H](NC(=O)O[C@@H](c1ccccc1)C(F)(F)c1cccc(Cl)c1)C(=O)N[C@@H](C[C@@H]1CCNC1=O)C(=O)C(=O)NC1CC1` [Compound A115], the IC50 is 805 nM.

Consider `O=C(N[C@@H](CC1CCCCC1)C(=O)N[C@@H](C[C@@H]1CCNC1=O)C(=O)C(=O)NC1CC1)O[C@@H](c1ccccc1)C(F)(F)c1cccc(Cl)c1` [Compound A116], for which it took 28.9 nM to reach half-maximal inhibition (IC50).

`CCNC(=O)C(=O)[C@H](C[C@@H]1CCNC1=O)NC(=O)[C@H](CC1CCCC1)NC(=O)OC(c1ccccc1)C(F)(F)c1cccc(Cl)c1` (stereo partly drawn) [Compound A117, 2-(3-chlorophenyl)-2,2-difluoro-1-phenylethyl ((S)-3-cyclopentyl-1-(((S)-4-(ethylamino)-3,4-dioxo-1-((S)-2-oxopyrrolidin-3-yl)butan-2-yl)amino)-1-oxopropan-2-yl)carbamate] registered an IC50 of 2.8 nM.

In the case of `CCNC(=O)C(=O)[C@H](C[C@@H]1CCNC1=O)NC(=O)[C@H](CC1CCCCC1)NC(=O)O[C@@H](c1ccccc1)C(F)(F)c1cccc(Cl)c1` [Compound A120], the IC50 was < 0.01 nM.

Consider `CCCC[C@H](NC(=O)O[C@@H](c1ccccc1)C(F)(F)c1cccc(Cl)c1)C(=O)N[C@@H](C[C@@H]1CCNC1=O)C(O)S(=O)(=O)O` (some centres unmarked) [Compound A121], for which the IC50 was determined as 18 nM.

Regarding `CCCC[C@H](NC(=O)O[C@@H](c1ccccc1)C(C)(C)c1cccc(Cl)c1)C(=O)N[C@H](C=O)C[C@H]1CCNC1=O` [Compound A122, (S)-2-(3-Chlorophenyl)-2-methyl-1-phenylpropyl ((S)-1-oxo-1-(((S)-1-oxo-3-((R)-2-oxopyrrolidin-3-yl)propan-2-yl)amino)hexan-2-yl)carbamate], the IC50 is < 0.1 nM.

`CCCC[C@H](NC(=O)O[C@H](c1ccccc1)C(C)(C)c1cccc(Cl)c1)C(=O)N[C@H](C=O)C[C@H]1CCNC1=O` [Compound A123] came in with an IC50 of 5300 nM.

(Values after patent US20240398757A1 (COCRYSTAL PHARMA, INC., priority 2022, published 2024).)
